From patent publication US6472348B1, “Pyridone derivatives and herbicides” (Kumiai Chemical Industry Co., Ltd., priority 1996, dated 2002)

Legend:
barnyardgrass (Ec) [1] = experiment: Test Example 1: herbicidal effects by paddy field soil treatment; assay type: in vivo; conditions: 100 g of the active ingredient per 10 ares, 21st day after the application, index 0-5 of Table 47;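 note: grade of growth control; 5 = at least 90%; 4 = 70 to 90%; 3 = 50 to 70%; 2 = 30 to 50%; 1 = 10 to 30%; 0 = under 10%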
In short: (§1)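 Scoring of herbicidal effect came 21 days after application of 100 g active ingredient per 10 ares to flooded (3 cm) paddy-soil pots sown with barnyardgrass, monochoria and bulrush, kept in a greenhouse.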

bulrush (Sc) = experiment: as above; assay type: in vivo; conditions: 100 g of the active ingredient per 10 ares, 21st day after the application, index 0-5 of Table 47;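 note: grade of growth control; 5 = at least 90%; 4 = 70 to 90%; 3 = 50 to 70%; 2 = 30 to 50%; 1 = 10 to 30%; 0 = under 10%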
In short: as §1

monochoria (Mo) = experiment: as above; assay type: in vivo; conditions: 100 g of the active ingredient per 10 ares, 21st day after the application, index 0-5 of Table 47;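 note: grade of growth control; 5 = at least 90%; 4 = 70 to 90%; 3 = 50 to 70%; 2 = 30 to 50%; 1 = 10 to 30%; 0 = under 10%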
In short: as §1

Digitaria ciliaris (Di) = experiment: Test Example 2: herbicidal effects by upland field soil treatment; assay type: in vivo; conditions: 100 g of the active ingredient per 10 ares;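 note: grade of growth control; 5 = at least 90%; 4 = 70 to 90%; 3 = 50 to 70%; 2 = 30 to 50%; 1 = 10 to 30%; 0 = under 10%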
Text: (§2) (Test on Herbicidal Effects by Upland Field Soil Treatment)

barnyardgrass (Ec) [2] = experiment: as above; assay type: in vivo; conditions: 100 g of the active ingredient per 10 ares
Text: as §2

[3] = tested on: common lambsquarters (Ch); experiment: as above; assay type: in vivo; conditions: 100 g of the active ingredient per 10 ares
Text: as §2

pale smartweed (Po) [4] = experiment: as above; assay type: in vivo; conditions: 100 g of the active ingredient per 10 ares
Text: as §2

rice flatsedge (Ci) [5] = experiment: as above; assay type: in vivo; conditions: 100 g of the active ingredient per 10 ares
Text: as §2

slender amaranth (Am) [6] = experiment: as above; assay type: in vivo; conditions: 100 g of the active ingredient per 10 ares
Text: as §2

Diaitaria ciliaris (Di) = experiment: Test Example 3: herbicidal effects by upland field foliage treatment; assay type: in vivo; design: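 grade of growth control; 5 = at least 90%; 4 = 70 to 90%; 3 = 50 to 70%; 2 = 30 to 50%; 1 = 10 to 30%; 0 = under 10%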
In short: (§3)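 Test plants had been raised from seed for 2 weeks in a greenhouse, in soil-covered sand pots of 120 cm^2, and were returned there after spraying.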

barnyardgrass (Ec) [7] = experiment: as above; assay type: in vivo; design: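 grade of growth control; 5 = at least 90%; 4 = 70 to 90%; 3 = 50 to 70%; 2 = 30 to 50%; 1 = 10 to 30%; 0 = under 10%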
In short: as §3

[8] = tested on: common lambsquarters (Ch); experiment: as above; assay type: in vivo; design: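 grade of growth control; 5 = at least 90%; 4 = 70 to 90%; 3 = 50 to 70%; 2 = 30 to 50%; 1 = 10 to 30%; 0 = under 10%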
In short: as §3

pale smartweed (Po) [9] = experiment: as above; assay type: in vivo; design: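 grade of growth control; 5 = at least 90%; 4 = 70 to 90%; 3 = 50 to 70%; 2 = 30 to 50%; 1 = 10 to 30%; 0 = under 10%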
In short: as §3

rice flatsedge (Ci) [10] = experiment: as above; assay type: in vivo; design: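 grade of growth control; 5 = at least 90%; 4 = 70 to 90%; 3 = 50 to 70%; 2 = 30 to 50%; 1 = 10 to 30%; 0 = under 10%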
In short: as §3

slender amaranth (Am) [11] = experiment: as above; assay type: in vivo; design: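 grade of growth control; 5 = at least 90%; 4 = 70 to 90%; 3 = 50 to 70%; 2 = 30 to 50%; 1 = 10 to 30%; 0 = under 10%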
In short: as §3

[12] = evaluated on the 21st day after application
[13] = 21st day after the application, index 0-5 of Table 47
[14] = 100 g of the active ingredient per 10 ares, evaluated on the 14th day after treatment
[15] = 100 g active ingredient per 10 ares, evaluated 14th day after treatment

C#CCn1c(=O)oc2cc(Cl)c(-c3ccc(C(F)(F)F)n(C)c3=O)cc21 [Compound No. 3-9, 3-[6-chloro-3-(2-propynyl)-benzoxazolin-2-on-5-yl]-1-methyl-6-trifluoromethyl-2(1H)-pyridone]
187 to 189 °C: melting point
5: Herbicidal effects Ec (barnyardgrass (Ec) [1]) | Herbicidal effects Sc (bulrush (Sc)) | Herbicidal effects Mo (monochoria (Mo)) | Herbicidal effects Di (Digitaria ciliaris (Di); [12]) | Herbicidal effects Ec (barnyardgrass (Ec) [2]; [12]) | Herbicidal effects Ch [3, 12] | Herbicidal effects Po (pale smartweed (Po) [4]; [12]) | Herbicidal effects Ci (rice flatsedge (Ci) [5]; [12]) | Herbicidal effects Am (slender amaranth (Am) [6]; [12])

Nn1c(C(F)(F)F)ccc(-c2ccc(Cl)cc2Cl)c1=O [Compound No. 1-5, 1-amino-3-(2,4-dichlorophenyl)-6-trifluoromethyl-2(1H)-pyridone]
5: Herbicidal effects Ec (barnyardgrass (Ec) [1]) | Herbicidal effects Sc (bulrush (Sc)) | Herbicidal effects Mo (monochoria (Mo)) | Herbicidal effects Di (Digitaria ciliaris (Di); [13]) | Herbicidal effects Ec (barnyardgrass (Ec) [2]; [13]) | Herbicidal effects Ch [3, 13] | Herbicidal effects Po (pale smartweed (Po) [4]; [13]) | Herbicidal effects Ci (rice flatsedge (Ci) [5]; [13]) | Herbicidal effects Am (slender amaranth (Am) [6]; [13]) | Herbicidal effects Di (Diaitaria ciliaris (Di); [14]) | Herbicidal effects Ec (barnyardgrass (Ec) [7]; [14]) | Herbicidal effects Ch [8, 14] | Herbicidal effects Po (pale smartweed (Po) [9]; [14]) | Herbicidal effects Ci (rice flatsedge (Ci) [10]; [14]) | Herbicidal effects Am (slender amaranth (Am) [11]; [14])
98 to 100 °C: melting point

Cn1c(C(F)(F)F)ccc(-c2ccc(F)cc2F)c1=O [Compound No. 1-12, 3-(2,4-difluorophenyl)-1-methyl-6-trifluoromethyl-2(1H)-pyridone]
5: Herbicidal effects Ec (barnyardgrass (Ec) [1]) | Herbicidal effects Sc (bulrush (Sc)) | Herbicidal effects Mo (monochoria (Mo))
123 to 124 °C: melting point

Cc1cc2c(Cl)cc(F)c(-c3ccc(C(F)(F)F)n(C)c3=O)c2o1 [Compound No. 5-1, 3-(4-chloro-6-fluoro-2-methylbenzofuran-7-yl)-1-methyl-6-trifluoromethyl-2 (1H)-pyridone]
138 to 140 °C: melting point
5: Herbicidal effects Ec (barnyardgrass (Ec) [1]) | Herbicidal effects Sc (bulrush (Sc)) | Herbicidal effects Mo (monochoria (Mo)) | Herbicidal effects Di (Digitaria ciliaris (Di); [12]) | Herbicidal effects Ec (barnyardgrass (Ec) [2]; [12]) | Herbicidal effects Ch [3, 12] | Herbicidal effects Po (pale smartweed (Po) [4]; [12]) | Herbicidal effects Ci (rice flatsedge (Ci) [5]; [12]) | Herbicidal effects Am (slender amaranth (Am) [6]; [12]) | Herbicidal effects Di (Diaitaria ciliaris (Di); [15]) | Herbicidal effects Ec (barnyardgrass (Ec) [7]; [15]) | Herbicidal effects Ch [8, 15] | Herbicidal effects Po (pale smartweed (Po) [9]; [15]) | Herbicidal effects Ci (rice flatsedge (Ci) [10]; [15]) | Herbicidal effects Am (slender amaranth (Am) [11]; [15])

Cn1c(C(F)(F)F)ccc(-c2cc([N+](=O)[O-])c(Cl)cc2F)c1=O [Compound No. 1-58, 3-(4-chloro-2-fluoro-5-nitrophenyl)-1-methyl-6-trifluoromethyl-2(1H)-pyridone]
5: Herbicidal effects Ec (barnyardgrass (Ec) [1]) | Herbicidal effects Sc (bulrush (Sc)) | Herbicidal effects Mo (monochoria (Mo))
139 to 140 °C: melting point

Cn1c(C(F)(F)F)ccc(-c2cc(S(C)(=O)=O)c(Cl)cc2F)c1=O [Compound No. 1-73, 3-(4-chloro-2-fluoro-5-methylsulfonylphenyl)-1-methyl-6-trifluoromethyl-2(1H)-pyridone]
144 to 145 °C: melting point
5: Herbicidal effects Ec (barnyardgrass (Ec) [1]) | Herbicidal effects Sc (bulrush (Sc)) | Herbicidal effects Mo (monochoria (Mo)) | Herbicidal effects Di (Digitaria ciliaris (Di); [13]) | Herbicidal effects Ch [3, 13] | Herbicidal effects Po (pale smartweed (Po) [4]; [13]) | Herbicidal effects Ci (rice flatsedge (Ci) [5]; [13]) | Herbicidal effects Am (slender amaranth (Am) [6]; [13])
4: Herbicidal effects Ec (barnyardgrass (Ec) [2]; [13])

Cn1c(C(F)(F)F)ccc(-c2cc([S+](C)[O-])c(Cl)cc2F)c1=O (centres unmarked) [Compound No. 1-88, 3-(4-chloro-2-fluoro-5-methylsulfinylphenyl)-1-methyl-6-trifluoromethyl-2(1H)-pyridone]
5: Herbicidal effects Ec (barnyardgrass (Ec) [1]) | Herbicidal effects Sc (bulrush (Sc)) | Herbicidal effects Mo (monochoria (Mo)) | Herbicidal effects Di (Digitaria ciliaris (Di); [13]) | Herbicidal effects Ch [3, 13] | Herbicidal effects Po (pale smartweed (Po) [4]; [13]) | Herbicidal effects Ci (rice flatsedge (Ci) [5]; [13]) | Herbicidal effects Am (slender amaranth (Am) [6]; [13])
4: Herbicidal effects Ec (barnyardgrass (Ec) [2]; [13])
147 to 148 °C: melting point

Cn1c(C(F)(F)F)ccc(-c2cc(NS(C)(=O)=O)c(Cl)cc2F)c1=O [Compound No. 1-60, 3-(4-chloro-2-fluoro-5-methylsulfonylaminophenyl)-1-methyl-6-trifluoromethyl-2(1H)-pyridone]
113 to 114 °C: melting point
5: Herbicidal effects Ec (barnyardgrass (Ec) [1]) | Herbicidal effects Sc (bulrush (Sc)) | Herbicidal effects Mo (monochoria (Mo)) | Herbicidal effects Di (Digitaria ciliaris (Di); [13]) | Herbicidal effects Ec (barnyardgrass (Ec) [2]; [13]) | Herbicidal effects Ch [3, 13] | Herbicidal effects Po (pale smartweed (Po) [4]; [13]) | Herbicidal effects Ci (rice flatsedge (Ci) [5]; [13]) | Herbicidal effects Am (slender amaranth (Am) [6]; [13]) | Herbicidal effects Di (Diaitaria ciliaris (Di); [14]) | Herbicidal effects Ec (barnyardgrass (Ec) [7]; [14]) | Herbicidal effects Ch [8, 14] | Herbicidal effects Po (pale smartweed (Po) [9]; [14]) | Herbicidal effects Ci (rice flatsedge (Ci) [10]; [14]) | Herbicidal effects Am (slender amaranth (Am) [11]; [14])

Cn1c(C(F)(F)F)ccc(-c2ccc(Cl)cc2F)c1=O [Compound No. 1-2, 3-(4-chloro-2-fluorophenyl)-1-methyl-6-trifluoromethyl-2(1H)-pyridone]
5: Herbicidal effects Ec (barnyardgrass (Ec) [1]) | Herbicidal effects Sc (bulrush (Sc)) | Herbicidal effects Mo (monochoria (Mo)) | Herbicidal effects Di (Digitaria ciliaris (Di); [13]) | Herbicidal effects Ec (barnyardgrass (Ec) [2]; [13]) | Herbicidal effects Ch [3, 13] | Herbicidal effects Po (pale smartweed (Po) [4]; [13]) | Herbicidal effects Ci (rice flatsedge (Ci) [5]; [13]) | Herbicidal effects Am (slender amaranth (Am) [6]; [13]) | Herbicidal effects Di (Diaitaria ciliaris (Di); [14]) | Herbicidal effects Ec (barnyardgrass (Ec) [7]; [14]) | Herbicidal effects Ch [8, 14] | Herbicidal effects Po (pale smartweed (Po) [9]; [14]) | Herbicidal effects Ci (rice flatsedge (Ci) [10]; [14]) | Herbicidal effects Am (slender amaranth (Am) [11]; [14])
103 to 104 °C: melting point

Cn1cc(-c2cc(OC3CCCC3)c(Cl)cc2F)c(=O)cc1C(F)(F)F [Compound No. 6-14, 5-(4-chloro-2-fluoro-5-cyclopentyloxyphenyl)-1-methyl-2-trifluoromethyl-4(1H)-pyridone]
152 to 154 °C: melting point
5: Herbicidal effects Ec (barnyardgrass (Ec) [1]) | Herbicidal effects Sc (bulrush (Sc)) | Herbicidal effects Mo (monochoria (Mo)) | Herbicidal effects Di (Digitaria ciliaris (Di); [12]) | Herbicidal effects Ec (barnyardgrass (Ec) [2]; [12]) | Herbicidal effects Ch [3, 12] | Herbicidal effects Po (pale smartweed (Po) [4]; [12]) | Herbicidal effects Ci (rice flatsedge (Ci) [5]; [12]) | Herbicidal effects Am (slender amaranth (Am) [6]; [12]) | Herbicidal effects Di (Diaitaria ciliaris (Di); [15]) | Herbicidal effects Ec (barnyardgrass (Ec) [7]; [15]) | Herbicidal effects Ch [8, 15] | Herbicidal effects Po (pale smartweed (Po) [9]; [15]) | Herbicidal effects Ci (rice flatsedge (Ci) [10]; [15]) | Herbicidal effects Am (slender amaranth (Am) [11]; [15])

CC(C)Oc1cc(-c2cn(C)c(C(F)(F)F)cc2=O)c(F)cc1Cl [Compound No. 6-7, 5-(4-chloro-2-fluoro-5-isopropoxyphenyl)-1-methyl-2-trifluoromethyl-4(1H)-pyridone]
150 to 151 °C: melting point
5: Herbicidal effects Ec (barnyardgrass (Ec) [1]) | Herbicidal effects Sc (bulrush (Sc)) | Herbicidal effects Mo (monochoria (Mo)) | Herbicidal effects Di (Digitaria ciliaris (Di); [12]) | Herbicidal effects Ec (barnyardgrass (Ec) [2]; [12]) | Herbicidal effects Ch [3, 12] | Herbicidal effects Po (pale smartweed (Po) [4]; [12]) | Herbicidal effects Ci (rice flatsedge (Ci) [5]; [12]) | Herbicidal effects Am (slender amaranth (Am) [6]; [12]) | Herbicidal effects Di (Diaitaria ciliaris (Di); [15]) | Herbicidal effects Ec (barnyardgrass (Ec) [7]; [15]) | Herbicidal effects Ch [8, 15] | Herbicidal effects Po (pale smartweed (Po) [9]; [15]) | Herbicidal effects Ci (rice flatsedge (Ci) [10]; [15]) | Herbicidal effects Am (slender amaranth (Am) [11]; [15])

CCOC(=O)c1cc2c(-c3ccc(C(F)(F)F)n(C)c3=O)c(F)cc(Cl)c2o1 [Compound No. 4-6, 3-(7-chloro-2-ethoxycarbonyl-5-fluorobenzofuran-4-yl)-1-methyl-6-trifluoromethyl-2-(1H)-pyridone]
4: Herbicidal effects Di (Diaitaria ciliaris (Di); [15])
118 to 120 °C: melting point
5: Herbicidal effects Ec (barnyardgrass (Ec) [1]) | Herbicidal effects Sc (bulrush (Sc)) | Herbicidal effects Mo (monochoria (Mo)) | Herbicidal effects Ec (barnyardgrass (Ec) [7]; [15]) | Herbicidal effects Ch [8, 15] | Herbicidal effects Po (pale smartweed (Po) [9]; [15]) | Herbicidal effects Ci (rice flatsedge (Ci) [10]; [15]) | Herbicidal effects Am (slender amaranth (Am) [11]; [15])

Cn1c(C(F)(F)F)ccc(-c2cc(S(=O)(=O)Cl)c(Cl)cc2F)c1=O [Compound No. 1-84, 3-(4-chloro-5-chlorosulfonyl-2-fluorophenyl)-1-methyl-6-trifluoromethyl-2(1H)-pyridone]
5: Herbicidal effects Di (Diaitaria ciliaris (Di); [14]) | Herbicidal effects Ec (barnyardgrass (Ec) [7]; [14]) | Herbicidal effects Ch [8, 14] | Herbicidal effects Po (pale smartweed (Po) [9]; [14]) | Herbicidal effects Ci (rice flatsedge (Ci) [10]; [14]) | Herbicidal effects Am (slender amaranth (Am) [11]; [14])
77 to 78 °C: melting point

Cn1cc(-c2ccc(Cl)cc2Cl)c(=O)cc1C(F)(F)F [Compound No. 6-3, 5-(2,4-dichlorophenyl)-1-methyl-2-trifluoromethyl-4(1H)-pyridone]
205 to 206 °C: melting point
